# Laboratory results taken from patent US20030073815A1, “Adrenic acid receptor and uses thereof” (priority 2001, published 2003).
# Entries after “also recorded” stand apart in the source; their conditions may differ.
# Experiments:
# [1] = molecular target: T1, PFI-011 (Homo sapiens, UniProt Q8TDT2); assay: Functional assay measuring intracellular calcium mobilisation (FLIPR); type: cell-based; settings: PFI-011-transfected cells compared to mock-transfected cells; Fluo3, FLIPR
# T1 construct: expressed in transfected cells
# Protocol: 5×10^6 cells of a suitable host cell line, chosen to express a low number of endogenous receptors (e.g. HEK293 or CHO-K1) and engineered to stably express certain Gα proteins (e.g. mouse Gα15 (Wilkie, T. M. et al (1991) Proc. Natl. Acad. Sci. 88, 10049-10053), a chimeric Gql5/Gql5 α-subunit, or human Gα16 (Amatruda, TT 3rd et al (1991) Proc. Natl. Acad. Sci. 88, 5587-5591)), were transiently transfected with 7.5 μg of cDNA encoding PFI-011 in a suitable mammalian cell expression vector, or vector alone, using Lipofectamine Plus® reagent (Gibco BRL) as per the manufacturer's protocol. […]
# Fluorescence Imaging Plate Reader (FLIPR®) technology was employed as a means to detect activation of PFI-011 by various potential GPCR agonists.
# Cells were transfected as described in Example 3. […] The FLIPR® processing involved reading the fluorescence for all samples for 2 minutes; during this time the fluorescence baseline was determined for 10 seconds. The desired amount of compounds (i.e. potential GPCR agonists) was then automatically transferred to the wells and the fluorescence was continuously monitored for the remainder of the time. […]
# Compounds capable of acting as agonists for the receptor were identified by them causing a transient rise in fluorescence, and therefore in intracellular calcium, in the cells.
# [2] = system: rabbits; settings: cited from earlier work
# [3] = system: oxygenation of arachidonic acid; settings: cited from earlier work
# T1 sequence (Q8TDT2 whole entry): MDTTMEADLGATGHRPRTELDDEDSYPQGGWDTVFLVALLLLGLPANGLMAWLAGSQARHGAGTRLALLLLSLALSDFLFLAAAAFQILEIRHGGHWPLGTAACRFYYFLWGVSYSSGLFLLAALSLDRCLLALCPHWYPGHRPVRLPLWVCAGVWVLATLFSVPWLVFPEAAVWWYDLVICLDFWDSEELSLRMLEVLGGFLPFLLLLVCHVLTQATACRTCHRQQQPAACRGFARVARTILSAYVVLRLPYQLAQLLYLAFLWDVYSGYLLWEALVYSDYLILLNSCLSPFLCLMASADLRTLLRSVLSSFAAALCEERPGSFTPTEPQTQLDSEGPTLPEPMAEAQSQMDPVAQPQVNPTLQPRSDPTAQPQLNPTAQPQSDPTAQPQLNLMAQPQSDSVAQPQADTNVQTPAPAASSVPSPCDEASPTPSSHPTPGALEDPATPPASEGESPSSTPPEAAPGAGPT
smiles,measurement,setting,value
CCCCC/C=C\C/C=C\C/C=C\C/C=C\CCCCCC(=O)O [adrenic acid],"response of PFI-011-expressing cells (fluorescence change over time, transient rise in intracellular calcium)",[1],response of PFI-011-expressing cells to adrenic acid; also recorded: responds to adrenic acid
same,blood pressure and renal flow,[2],reduce blood pressure and renal flow
same,"oxygenation of arachidonic acid; synthesis of prostaglandins PGF2, PGE2 & PGD2",[3],inhibit the oxygenation of arachidonic acid
